From patent US20080096807A1, “Cyclic vasoactive intestinal peptide receptor-2 agonists” (priority 2006, published 2008)
pEC50: −log10 of the molar value. Read-outs that look alike come from different tables or passages of the source. Bridge positions count the residues as written; N and C are the ends. Square brackets hold non-standard residues; d marks the D form. Peptide text beside a SMILES is read from it. ξ: configuration not given here. Thr(3ξ) = CC(O)[C@H](N)C(=O)O; Nle = CCCC[C@H](N)C(=O)O

Tests used:
VPAC2 receptor = biological target: T1, VPAC2 receptor (Homo sapiens, UniProt P41587); experiment: Sup-T1 cAMP agonist assay; assay type: cell-based
T1 construct: The human T-lymphoid cell line Sup-Ti, which expresses the VPAC2 receptor; host or cells: Sup-T1 (Sup-Ti [sic]) human T-lymphoid cell line
T1 sequence (P41587 24-438): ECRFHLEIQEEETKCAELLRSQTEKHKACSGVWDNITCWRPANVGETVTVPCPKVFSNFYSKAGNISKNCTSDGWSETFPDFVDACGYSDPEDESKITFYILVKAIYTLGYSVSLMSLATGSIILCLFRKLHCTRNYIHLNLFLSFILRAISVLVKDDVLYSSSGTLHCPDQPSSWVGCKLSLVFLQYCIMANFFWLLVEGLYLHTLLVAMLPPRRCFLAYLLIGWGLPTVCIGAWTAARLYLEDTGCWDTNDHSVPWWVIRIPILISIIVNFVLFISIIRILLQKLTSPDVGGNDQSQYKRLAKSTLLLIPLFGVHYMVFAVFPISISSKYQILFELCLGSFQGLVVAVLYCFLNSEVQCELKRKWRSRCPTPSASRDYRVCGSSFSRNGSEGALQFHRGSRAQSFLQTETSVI
Protocol: The human T-lymphoid cell line Sup-Ti, which expresses the VPAC2 receptor, was obtained from the American Type Culture Collection (ATCC, CRL-1942) and maintained in growth medium at densities between 0.2 and 2×10^6 cells/ml in a 37° C. CO2 incubator. The growth medium was RPMI 1640 (Invitrogen) supplemented with 25 mM HEPES buffer and 10% fetal bovine serum (Gemini Bioproducts).
To evaluate VPAC2 agonist compound activity, cells in log-phase growth were washed once with growth medium at room temperature and plated into 96-well plates at a density of 4×10^4 cells per well in 150 uL of growth medium. Fifty uL of the compounds to be tested, prepared at appropriate concentrations in growth medium, were then added to designated wells. After 5 min at room temperature, the cells were lysed by adding 25 uL of lysis reagent 1A (cAMP Biotrak EIA system, Amersham Biosciences, RPN225) to each well. The 96-well plates were kept at room temperature for 10 min with shaking and then stored at 4° C. until analysis for cAMP (within 2 hr).
Cyclic AMP levels were determined in 100 uL of each lysate using the cAMP Biotrak Enzymeimmunoassay (EIA) kit according to the manufacture's instructions (Amersham Biosciences, RPN225). The activity of each VPAC2 agonist compound (EC50 value) was estimated by fitting the 7-concentration dose response data to a sigmoidal dose-response equation provided by the GraphPad Prism program (GraphPad Software, Inc.).

[1] = biological target: T2, human neutrophil elastase (Homo sapiens, UniProt P08246); experiment: Peptide stability to neutrophil elastase (RP HPLC ESI MS); settings: halftime with human neutrophil elastase 1 to 2 μg/mL in PBS, ambient temperature, normalized to halftime of the reference standard
T2 sequence (P08246 30-247 limits assumed): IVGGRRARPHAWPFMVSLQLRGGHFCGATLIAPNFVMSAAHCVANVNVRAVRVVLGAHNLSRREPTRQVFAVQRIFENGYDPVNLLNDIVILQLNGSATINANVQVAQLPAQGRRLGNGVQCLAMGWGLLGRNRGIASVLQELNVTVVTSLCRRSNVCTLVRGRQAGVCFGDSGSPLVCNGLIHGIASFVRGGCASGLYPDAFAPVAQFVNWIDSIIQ
Protocol: The proteolytic stabilities of peptide analogs were established with reversed phase high pressure liquid chromatography (RP HPLC) electrospray ionization mass spectrometry (ESI MS). Peptide analogs were incubated with human neutrophile elastase and the quantity of undigested analogs was determined by ESI MS at appropriate time points. Multiple peptide analogs could be included in one experiment as long as they could be differentiated by HPLC retention time and/or by molecular weight. Ac-His Ac-[sequence]Nle-[sequence]NH2 was used in all experiments as a control and as a reference standard. The simultaneous use of multiple peptide analogs together with a reference standard allowed for compensation for variations in the proteolytic fidelity of the enzyme over the multiple experiments. Integrated ion currents obtained for the individual undigested peptide were used for quantitation. For calculation of halftime first-order kinetic behavior was assumed and all calculations were normalized to the halftime of the reference standard.
Peptide stock solutions were prepared in water to a concentration of 2.5 mg/mL. Unless in use, all stock solutions were kept at −20° C. […] Concentrations of the peptide analogs were adjusted accordingly. In order to do the proteolytic digestion, peptides were dissolved in phosphate buffered saline (PBS) to a concentration of 0.1 mg/mL. As many as six different peptide analogs were mixed into one 50 μL reaction volume. The reference standard was added to all experiments as a reference and internal standard. Elastase (Human Neutrophil, Calbiochem, Cat # 324681) was added from an elastase stock solution to a concentration of 1 to 2 μg/mL. Different amounts of the enzyme were chosen to compensate for the differences in the proteolytic stabilities of the peptide analogs. Previously, a stock solution of elastase was prepared in water at a concentration of 1 mg/mL. Small aliquots of the enzyme stock solution were kept at −20° C. to better maintain the enzyme activity by limiting the number of thaw and freeze cycles.
The digestion was done at ambient temperature in an autosampler tube within the autosampler of the HPLC system (Agilent 1100 Series). For a time course, 5 μL aliquots were injected in 70 minute intervals onto the reversed phase HPLC column (Phenomenex, Luna C18, 3μ, 100 ↑, 150×2.00 mm). For the starting time point an aliquot was injected just prior to the addition of the proteolytic enzyme. A total of eight time points could be recorded from one experiment, including the starting point. Peptides were separated on the reversed phase column with a 50 minute gradient of 5% to 30% organic phase. The aqueous phase was 0.05% (v/v) of trifluoroacetic acid in water and the organic one was 0.045% (v/v) of trifluoroacetic acid in acetonitrile. Absorbances were recorded at 214 and 280 nm respectively. All of the column effluent was introduced into the turbo V source of the electrospray ionization mass spectrometer (ABI 4000 QTrap LC/MS/MS System). Mass spectra were acquired in Q3MS mode in a mass range to include all triply charged ions of the non degraded peptide analogs. Care was taken to assure that peptide analogs could clearly be differentiated either by the chromatographic retention time or by the difference in molecular weight. Relative quantities of the respective undigested peptide analog were calculated from the integrated total ion current. A window of 2.5 Da was chosen and the manufacturer's software was used to integrate the individual ion currents. The overall halftime of an individual peptide analog was calculated by assuming first-order kinetic behavior and was normalized with respect to the halftime of the reference standard.

[2] = human T-lymphoid cell line Sup-T1 expressing VPAC2 receptor, cAMP EIA, 5 min at room temperature, read-out: Sup-T1 cAMP EC50

SMILES | pEC50 (VPAC2 receptor; [2]) | Relative elastase stability [1] | pEC50 (VPAC2 receptor)
CCCC[C@H](NC(=O)[C@H](CCC(N)=O)NC(=O)[C@H](CCCCN)NC(=O)[C@H](CCCNC(=N)N)NC(=O)[C@H](CC(C)C)NC(=O)[C@H](CCCCN)NC(=O)[C@@H](NC(=O)[C@H](Cc1ccc(O)cc1)NC(=O)[C@H](CC(N)=O)NC(=O)[C@H](CCC(=O)O)NC(=O)[C@@H](NC(=O)[C@H](Cc1ccccc1)NC(=O)[C@H](CCC(N)=O)NC(=O)[C@H](C)NC(=O)[C@H](CC(=O)O)NC(=O)[C@H](CO)NC(=O)[C@H](Cc1c[nH]cn1)NC(C)=O)C(C)O)C(C)O)C(=O)N[C@@H](C)C(=O)N[C@@H](C)C(=O)N[C@@H](CCCCN)C(=O)N[C@H]1CCCCNC(=O)C[C@@H](C(=O)N[C@@H](CC(C)C)C(=O)N[C@@H](CCCCN)C(=O)N[C@@H](CCCCN)C(=O)NCC(=O)NCC(=O)N[C@H](C(N)=O)C(C)O)NC(=O)[C@H](CC(N)=O)NC(=O)[C@H](CC(C)C)NC(=O)[C@H](Cc2ccc(O)cc2)NC1=O (some centres unmarked) [Example 4] (Ac-HSDAQF[Thr(3ξ)]ENY[Thr(3ξ)]KLRKQ[Nle]AAKKYLNDLKKGG[Thr(3ξ)]-NH2; lactam 21-25) | 7.07 | 3.9 | 
CCCC[C@H](NC(=O)[C@H](CCCNC(=N)N)NC(=O)[C@H](CCCCN)NC(=O)[C@H](CCCNC(=N)N)NC(=O)[C@H](CC(C)C)NC(=O)[C@H](CCCCN)NC(=O)[C@@H](NC(=O)[C@H](Cc1ccc(O)cc1)NC(=O)[C@H](CC(N)=O)NC(=O)[C@H](CCC(=O)O)NC(=O)[C@@H](NC(=O)[C@H](Cc1ccccc1)NC(=O)[C@H](CO)NC(=O)[C@H](C)NC(=O)[C@H](CC(=O)O)NC(=O)[C@H](CO)NC(=O)[C@H](Cc1c[nH]cn1)NC(C)=O)[C@@H](C)O)[C@@H](C)O)C(=O)N[C@@H](C)C(=O)N[C@@H](C)C(=O)N[C@@H](CCCCN)C(=O)N[C@H]1CCCCNC(=O)C[C@@H](C(=O)N[C@@H](CC(C)C)C(=O)N[C@@H](CC(C)C)C(=O)N[C@@H](CC(N)=O)C(=O)NCC(=O)NCC(=O)N[C@H](C(N)=O)[C@@H](C)O)NC(=O)[C@H](CC(N)=O)NC(=O)[C@H](CC(C)C)NC(=O)[C@H](Cc2ccc(O)cc2)NC1=O [Example 14] (Ac-HSDASFTENYTKLRKR[Nle]AAKKYLNDLLNGGT-NH2; lactam 21-25) |  | 4.5 | 7.03
CCCC[C@H](NC(=O)[C@H](CCCNC(=N)N)NC(=O)[C@H](CCCCN)NC(=O)[C@H](CCCNC(=N)N)NC(=O)[C@H](CC(C)C)NC(=O)[C@H](CCCCN)NC(=O)[C@@H](NC(=O)[C@H](Cc1ccc(O)cc1)NC(=O)[C@H](CC(N)=O)NC(=O)[C@H](CCC(=O)O)NC(=O)[C@@H](NC(=O)[C@H](Cc1ccccc1)NC(=O)[C@H](CO)NC(=O)[C@H](C)NC(=O)[C@H](CC(=O)O)NC(=O)[C@H](CO)NC(=O)[C@H](Cc1c[nH]cn1)NC(C)=O)C(C)O)C(C)O)C(=O)N[C@@H](CCCCN)C(=O)N[C@@H](C)C(=O)N[C@@H](CCCCN)C(=O)N[C@H]1CCCCNC(=O)C[C@@H](C(=O)N[C@@H](CC(C)C)C(=O)N[C@@H](CCCCN)C(=O)N[C@@H](CCCCN)C(=O)NCC(=O)NCC(=O)N[C@H](C(N)=O)C(C)O)NC(=O)[C@H](CC(N)=O)NC(=O)[C@H](CC(C)C)NC(=O)[C@H](Cc2ccc(O)cc2)NC1=O (some centres unmarked) [Example 16] (Ac-HSDASF[Thr(3ξ)]ENY[Thr(3ξ)]KLRKR[Nle]KAKKYLNDLKKGG[Thr(3ξ)]-NH2; lactam 21-25) | 5.99 | 4.4 | 
CCCC[C@H](NC(=O)[C@H](CCC(N)=O)NC(=O)[C@H](CCCCN)NC(=O)[C@H](CCCNC(=N)N)NC(=O)[C@H](CC(C)C)NC(=O)[C@H](CCCCN)NC(=O)[C@@H](NC(=O)[C@H](Cc1ccc(O)cc1)NC(=O)[C@H](CC(N)=O)NC(=O)[C@H](CCC(=O)O)NC(=O)[C@@H](NC(=O)[C@H](Cc1ccccc1)NC(=O)[C@@H]1CCCN1C(=O)[C@H](C)NC(=O)[C@H](CC(=O)O)NC(=O)[C@H](CO)NC(=O)[C@H](Cc1c[nH]cn1)NC(C)=O)C(C)O)C(C)O)C(=O)N[C@@H](C)C(=O)N[C@@H](C)C(=O)N[C@@H](CCCCN)C(=O)N[C@H]1CCCCNC(=O)C[C@@H](C(=O)N[C@@H](CC(C)C)C(=O)N[C@@H](CCCCN)C(=O)N[C@@H](CCCCN)C(=O)NCC(=O)NCC(=O)N[C@H](C(N)=O)C(C)O)NC(=O)[C@H](CC(N)=O)NC(=O)[C@H](CC(C)C)NC(=O)[C@H](Cc2ccc(O)cc2)NC1=O (some centres unmarked) [Example 5] (Ac-HSDAPF[Thr(3ξ)]ENY[Thr(3ξ)]KLRKQ[Nle]AAKKYLNDLKKGG[Thr(3ξ)]-NH2; lactam 21-25) | 5.92 | 4.9 | 

Second part, led by results:

pEC50 (VPAC2 receptor; [2]) | Relative elastase stability [1] | SMILES | pEC50 (VPAC2 receptor)
7.01 | 4.5 | CCCC[C@H](NC(=O)[C@H](CCC(N)=O)NC(=O)[C@H](CCCCN)NC(=O)[C@H](CCCNC(=N)N)NC(=O)[C@H](CC(C)C)NC(=O)[C@H](CCCCN)NC(=O)[C@@H](NC(=O)[C@H](Cc1ccc(O)cc1)NC(=O)[C@H](CC(N)=O)NC(=O)[C@H](CCC(=O)O)NC(=O)[C@@H](NC(=O)[C@H](Cc1ccccc1)NC(=O)[C@H](CC(=O)O)NC(=O)[C@H](C)NC(=O)[C@H](CC(=O)O)NC(=O)[C@H](CO)NC(=O)[C@H](Cc1c[nH]cn1)NC(C)=O)C(C)O)C(C)O)C(=O)N[C@@H](C)C(=O)N[C@@H](C)C(=O)N[C@@H](CCCCN)C(=O)N[C@H]1CCCCNC(=O)C[C@@H](C(=O)N[C@@H](CC(C)C)C(=O)N[C@@H](CCCCN)C(=O)N[C@@H](CCCCN)C(=O)NCC(=O)NCC(=O)N[C@H](C(N)=O)C(C)O)NC(=O)[C@H](CC(N)=O)NC(=O)[C@H](CC(C)C)NC(=O)[C@H](Cc2ccc(O)cc2)NC1=O (some centres unmarked) [Example 3] (Ac-HSDADF[Thr(3ξ)]ENY[Thr(3ξ)]KLRKQ[Nle]AAKKYLNDLKKGG[Thr(3ξ)]-NH2; lactam 21-25) | 
 | 5.7 | CCCC[C@H](NC(=O)[C@H](CCC(N)=O)NC(=O)[C@H](CCCCN)NC(=O)[C@H](CCCNC(=N)N)NC(=O)[C@H](CC(C)C)NC(=O)[C@H](CCCCN)NC(=O)[C@@H](NC(=O)[C@H](Cc1ccc(O)cc1)NC(=O)[C@H](CC(N)=O)NC(=O)[C@H](CCC(=O)O)NC(=O)[C@@H](NC(=O)[C@H](Cc1ccccc1)NC(=O)[C@@](C)(NC(=O)[C@H](C)NC(=O)[C@H](CC(=O)O)NC(=O)[C@H](C)NC(=O)[C@H](Cc1c[nH]cn1)NC(C)=O)C(C)C)C(C)O)C(C)O)C(=O)N[C@@H](C)C(=O)N[C@@H](C)C(=O)N[C@@H](CCCCN)C(=O)N[C@H]1CCCCNC(=O)C[C@@H](C(=O)N[C@@H](CC(C)C)C(=O)N[C@@H](CCCCN)C(=O)N[C@@H](CCCCN)C(=O)NCC(=O)NCC(=O)N[C@H](C(N)=O)C(C)O)NC(=O)[C@H](CC(N)=O)NC(=O)[C@H](CC(C)C)NC(=O)[C@H](Cc2ccc(O)cc2)NC1=O (stereo partly drawn) [Example 21, Ac-His-Ala-Asp-Ala-MeVal-Phe-Thr-Glu-Asn-Tyr-Thr-Lys-Leu-Arg-Lys-Gln-Nle-Ala-Ala-Lys-Lys-Tyr-Leu-Asn-Asp-Leu-Lys-Lys-Gly-Gly-Thr-NH2] | 
